{"source": "ChEMBL document CHEMBL5136967", "about": "“Identification of molecular glues of the SLP76/14-3-3 protein-protein interaction” (RSC Med Chem, 2021)"}
{"species": "Homo sapiens", "experiment": "Binding affinity to His6-tagged/Tb-labelled 14-3-3gamma (unknown origin)/His6-SUMO-tagged/AF647-labelled SLP76 (unknown origin) expressed in Noco21 (DE3) cells assessed as fold change in KD improvement by HTRF assay"}
{"compound": "COc1ccccc1-c1nnc2scnn12", "fold change (FC)": 11}
{"compound": "CC1=CCC2COC(C[N+]3(C)CCCCC3)C1C2", "note": "(configuration not stated)", "fold change (FC)": 4.7}
{"compound": "CC(C)N1CC[C@H]2COC(=O)N2c2cc(F)ccc2C1", "fold change (FC)": 4.1}
{"compound": "O=C(Cn1nc(C(F)(F)F)c2c1CCCC2)Nc1ccc(Cl)c(Cl)c1", "fold change (FC)": 14.6}
{"compound": "CC1=Nn2c(nnc2-c2ccoc2C)SC1", "fold change (FC)": 1.4}
{"compound": "O=C(c1ccc(Cl)cc1)n1c(Cn2nnc(-c3cccc4ccccc34)n2)n[nH]c1=S", "fold change (FC)": 1.8}
{"compound": "S=c1[nH]nc(Cn2nnc3ccccc32)o1", "fold change (FC)": 1.1}
{"compound": "Fc1ccc(OCc2nn3c(Cn4cnc5ccccc54)nnc3s2)cc1", "fold change (FC)": 3.5}
{"compound": "c1cc(-c2nnc3scnn23)ccn1", "fold change (FC)": 4.4}
{"compound": "COc1ccc(C(=O)N2C[C@@H]3CN(CCO3)C(=O)[C@@H]3C[C@@H](CN3Cc3ccc4c(c3)OCO4)NC(=O)C[C@@H]3O[C@H](C2)[C@@H](O)[C@H]3O)cc1", "fold change (FC)": 3.4}
{"compound": "O=C1OC[C@@H]2CCN(Cc3ccccc3)Cc3ccccc3N12", "fold change (FC)": 3.3}
{"compound": "CC(C)CNC(=O)c1ccc2c(c1)nc1n2CCN(C(C)C)C1=O", "fold change (FC)": 5.2}
